What all share (type): cell-based
Data set [1] relates to AHR-dependent transcription of the CYP1A1 gene. The data set is described as follows: CYP1A1 induction in mouse macrophages. As for the experimental part: Mouse macrophages were also used to test AHR-dependent transcription of the CYP1A1 gene in vivo. Finally, the activity of exemplary compounds of Formula (I) described herein was tested in the human […] cell line U937. The U937 cell line is derived from a patient with diffuse histiocytic lymphoma. Tables 2-4 summarize structure-activity relationship data collected for exemplary, non-limiting compounds of Formula (I) described herein.

Data set [2] has as its target T1, AhR (Homo sapiens, UniProt P35869).
T1 construct: endogenous in cells; host or cells: HepG2 (human liver cancer cell line)
T1 sequence (P35869 11-848): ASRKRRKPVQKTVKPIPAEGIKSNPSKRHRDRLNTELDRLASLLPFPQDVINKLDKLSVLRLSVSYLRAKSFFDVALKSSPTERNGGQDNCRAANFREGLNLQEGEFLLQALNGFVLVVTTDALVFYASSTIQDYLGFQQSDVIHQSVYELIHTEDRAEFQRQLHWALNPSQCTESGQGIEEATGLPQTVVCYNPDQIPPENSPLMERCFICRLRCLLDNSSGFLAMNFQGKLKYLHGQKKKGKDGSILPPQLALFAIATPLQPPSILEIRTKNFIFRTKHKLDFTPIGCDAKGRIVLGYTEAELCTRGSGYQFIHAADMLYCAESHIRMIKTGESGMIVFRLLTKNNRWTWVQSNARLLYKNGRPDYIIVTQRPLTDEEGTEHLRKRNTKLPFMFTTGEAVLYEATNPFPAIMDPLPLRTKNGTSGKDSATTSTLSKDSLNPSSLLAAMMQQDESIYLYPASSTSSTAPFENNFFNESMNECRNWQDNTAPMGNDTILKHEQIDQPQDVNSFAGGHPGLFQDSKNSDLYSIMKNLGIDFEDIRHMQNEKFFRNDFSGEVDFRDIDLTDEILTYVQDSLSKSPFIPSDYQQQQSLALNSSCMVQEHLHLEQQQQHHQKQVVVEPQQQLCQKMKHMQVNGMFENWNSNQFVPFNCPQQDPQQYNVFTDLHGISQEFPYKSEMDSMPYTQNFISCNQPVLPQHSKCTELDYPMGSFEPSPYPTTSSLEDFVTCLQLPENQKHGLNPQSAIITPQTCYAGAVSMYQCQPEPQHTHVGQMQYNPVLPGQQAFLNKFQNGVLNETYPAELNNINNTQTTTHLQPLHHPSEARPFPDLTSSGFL
As to the kind of experiment: AhR nuclear translocation assay, human HepG2. The settings on record: human HepG2, 10 μM, 90 minutes. As for the experimental part:
(§1) Mouse Hepa-1c1c7 or human HepG2 cells were seeded in 8 well chamber slides followed by 24 hours incubation in tryptophan deficient media (HBSS with Ca^2+ and Mg^2+, 10% heat inactivated FBS, 1× non-essential amino acids, 1× sodium pyruvate, 4.5 g/L glucose). Cells were treated with vehicle control (DMSO) or 10 μM ITE, compound 108, or compound 109 for 90 minutes in tryptophan deficient media. Following treatment, cells were fixed in 4% formaldehyde and processed according to standard immunofluorescence staining protocol. Primary anti-AhR antibody was applied at 1:100 dilution (Enzo, BML-SA210) and Alexa488 conjugated secondary antibody was applied at 1:500 dilution (Cell Signaling, 4412S). Actin was stained using Alexa 568 conjugated Phalloidin (Fisher). Samples were mounted in anti-fade mounting medium supplemented with DAPI for nuclear staining and imaged with confocal microscopy (Leica SP5×MP, 63× oil lens).

The subject of the next data set is cyp1a1. As to the kind of experiment: cyp1a1 expression by q-PCR in mouse Hepa-1c1c7 cells. Conditions: mouse Hepa-1c1c7, 10 nM-10 μM, 8 hours. As for the experimental part:
RNA was extracted using TRIzol (Invitrogen) following manufacturer's instructions and 0.1 μg of RNA was converted to cDNA using a high capacity cDNA reverse transcription kit (Invitrogen). qPCR was performed on the Applied Biosystems 7900 using TaqMan® Universal PCR Master Mix (Life Technologies) with TaqMan® (Life Technologies) primers against cyp1a1 (Mm00487218_m1), AhR (Mm00478932_m1), IL-22 (Mm01226722_g1), Foxp3 (Mm00475162_m1), IL-10 (Mm01288386_m1), TNF-a (Mm00443258_m1), IFN-r (Mm01168134_m1). The fold increase from experimental groups to control was calculated using the delta-delta CT method with 18S (Mm00446186_m1) as an internal reference gene. In vitro and in vivo activation of the AhR singling pathway was confirmed by q-PCR characterization of cyp1a1. For in vitro induction, mouse Hepa-1c1c7 were cultured to confluence in 24 well plates in full DMEM followed by 24 hours incubation in tryptophan deficient media. Cells were treated with vehicle control (DMSO), ITE, compound 108, or compound 109 (10 nM-10 μM) for 8 hours in tryptophan deficient media. At the end of treatment, cells were lysed in TRIzol for RNA isolation. To monitor in vivo induction, (0.1-1000 μg) compound 109 was given per mouse via oral gavage in 100 μl of vehicle (1% HPMC, 1% polysorbate 80). After 12 hours, liver, colon, spleen and leukocytes from blood were collected and lysed in TRIzol (Invitrogen) for q-PCR analysis.

Data set [3] has as its target T2, AhR (Mus musculus, UniProt P30561).
T2 construct: endogenous in cells; host or cells: Hepa-1c1c7 (mouse hepatoma cell line)
The data set is described as follows: AhR nuclear translocation assay, mouse Hepa-1c1c7. The settings on record: mouse Hepa-1c1c7, 10 μM, 90 minutes. As for the experimental part: as §1

The target of data set [4] is T3, aryl hydrocarbon receptor (AHR) (Mus musculus, UniProt P30561).
T3 construct: Transfection was performed with 150 ng XRE-luciferase plasmid (Promega); endogenous in cells; host or cells: Hepa-1c1c7 (mouse hepatoma cell line)
T3 sequence (P30561 10-805 limits assumed): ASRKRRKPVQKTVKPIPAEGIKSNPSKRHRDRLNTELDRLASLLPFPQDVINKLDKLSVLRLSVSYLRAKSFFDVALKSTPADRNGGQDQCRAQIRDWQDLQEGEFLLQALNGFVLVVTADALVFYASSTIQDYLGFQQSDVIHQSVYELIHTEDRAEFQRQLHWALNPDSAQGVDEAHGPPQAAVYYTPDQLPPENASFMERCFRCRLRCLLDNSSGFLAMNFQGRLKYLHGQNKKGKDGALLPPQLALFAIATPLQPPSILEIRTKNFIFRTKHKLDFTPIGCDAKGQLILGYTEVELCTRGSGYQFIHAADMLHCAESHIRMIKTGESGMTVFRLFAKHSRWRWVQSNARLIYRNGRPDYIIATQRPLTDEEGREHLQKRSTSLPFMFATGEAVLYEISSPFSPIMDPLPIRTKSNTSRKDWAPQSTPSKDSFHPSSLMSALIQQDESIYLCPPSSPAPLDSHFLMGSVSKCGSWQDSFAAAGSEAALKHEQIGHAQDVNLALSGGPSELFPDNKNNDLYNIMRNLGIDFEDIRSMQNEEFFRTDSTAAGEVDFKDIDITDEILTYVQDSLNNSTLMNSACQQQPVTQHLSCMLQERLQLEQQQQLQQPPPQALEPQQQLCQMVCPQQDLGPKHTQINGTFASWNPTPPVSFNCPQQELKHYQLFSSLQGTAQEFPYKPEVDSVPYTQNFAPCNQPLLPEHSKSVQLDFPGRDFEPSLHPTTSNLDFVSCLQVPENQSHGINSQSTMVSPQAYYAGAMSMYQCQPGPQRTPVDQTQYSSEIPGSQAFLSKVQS
T3 sequence (P53762 whole entry partner): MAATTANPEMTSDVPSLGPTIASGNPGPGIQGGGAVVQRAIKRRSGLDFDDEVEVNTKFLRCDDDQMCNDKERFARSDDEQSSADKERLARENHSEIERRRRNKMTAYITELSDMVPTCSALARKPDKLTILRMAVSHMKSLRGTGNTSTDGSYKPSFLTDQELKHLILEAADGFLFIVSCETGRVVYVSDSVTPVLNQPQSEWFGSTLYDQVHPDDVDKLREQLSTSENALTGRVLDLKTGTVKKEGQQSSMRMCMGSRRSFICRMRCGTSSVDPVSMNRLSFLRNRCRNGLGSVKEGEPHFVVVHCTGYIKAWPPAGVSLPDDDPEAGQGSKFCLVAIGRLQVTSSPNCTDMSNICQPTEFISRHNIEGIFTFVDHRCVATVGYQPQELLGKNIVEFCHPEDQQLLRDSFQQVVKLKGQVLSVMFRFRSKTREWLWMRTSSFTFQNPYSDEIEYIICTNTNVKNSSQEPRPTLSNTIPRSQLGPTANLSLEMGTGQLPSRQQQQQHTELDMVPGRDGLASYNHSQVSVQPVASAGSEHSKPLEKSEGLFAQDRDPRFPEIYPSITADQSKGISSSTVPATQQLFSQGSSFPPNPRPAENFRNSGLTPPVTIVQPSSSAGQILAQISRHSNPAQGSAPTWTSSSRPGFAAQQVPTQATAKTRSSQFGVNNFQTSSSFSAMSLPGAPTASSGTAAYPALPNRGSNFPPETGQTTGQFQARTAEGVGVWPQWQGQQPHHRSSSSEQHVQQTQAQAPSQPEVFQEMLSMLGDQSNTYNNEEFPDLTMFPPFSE
The data set is described as follows: XRE-driven luciferase reporter assay, mouse Hepa1c1c7. Background: Reporter assays use an easily measured gene product as a stand-in for the process of interest.
Experimental: Human HepG2 or mouse Hepa-1c1c7 cells were seeded in 96 well opaque plates at 75,000 cells per well in full medium (DMEM+10% FBS) for 24 hours. Transfection was performed with 150 ng XRE-luciferase plasmid (Promega) with 4:1 Fugene to DNA ratio for 18 hours in Opti-MEM. Transfected cells were treated with AhR agonist (10^−5-10^−12) for 4.5 h in full medium. Cells were lysed and luciferase was activated using the Luciferase Assay System (Promega). Luminescence signals were measured with a FluroStar Omega microplate reader. Luminescence signals of compound treated groups were normalized to vehicle (DMSO) treated control and plotted as concentration dependent fold changes.

pEC50: −log10 of the molar value. Entries after “also recorded” stand apart in the source; their conditions may differ.

From US12152016B2, “Aryl hydrocarbon receptor modulators and uses thereof” (Beth Israel Deaconess Medical Center, Inc., priority 2018, dated 2024) come the findings set out here.

T2 sequence (P30561 10-805 limits assumed): as the sequence (P30561 10-805 limits assumed) above
T2 sequence (P53762 whole entry partner): as the sequence (P53762 whole entry partner) above

Usually pEC50 stands for the EC50 on a negative log10 scale, so that one unit is a factor of ten. Read a high pEC50 as a small EC50. Take `N#Cc1cccc(C(=O)c2c[nH]c3ccccc23)n1` [Compound 108, 6-(1H-indole-3-carbonyl)pyridine-2-carbonitrile]: the “CYP1A1 induction (% of ITE ± SEM)” value in data set [1] (50 nM) is 33 ± 3 % of ITE; in data set [1] (5 μM), 94 ± 24 % of ITE. The AhR nuclear translocation entry on AhR [2] and at AhR [3] was “localized in the nucleus; also recorded: rapid nuclear enrichment of AhR” in each case. The “cyp1a1 expression (qPCR)” value in the data set on cyp1a1 is “induced AhR-dependent cyp1a1 expression; also recorded: dose dependent induction of cyp1a1 expression”. In data set [4], the pEC50 is 7.03. For the same compound, the “XRE luciferase Emax (fold)” value in data set [4] is 86 fold.
